The structures appear in SMILES notation.

Common to all, as to type: ADME
Series [1] in a line: Acid dissociation constant was determined.
Series [2] can be described thus: log K1 value of the compound.
Series [3] in a line: log K2 value of the compound.
Series [4] can be described thus: log K3 value of the compound.

With `O=C(O)CCn1ccc(=O)c(O)c1`, the pKa in series [1] (read-out: pKa1) stood at 2.92; in series [1] (read-out: pKa2), 8.91. In addition, in series [2], the “Log K1” value turned out to be 9.48. Besides, in series [3], the “Log K2” value was 7.48.

Take `Cn1ccc(=O)c(O)c1`: the pKa came to 3.35 in series [1] (read-out: pKa1) and 8.8 in series [1] (read-out: pKa2). Moreover, in series [2], the “Log K1” value is listed as 9.35. Further, the “Log K2” value in series [3] turned out to be 7.58.

Regarding `Oc1ccncc1O`, in series [1] (read-out: pKa1), the pKa amounted to 3.36. Moreover, the “Log K1” value in series [2] was found to be 9.49. For the same compound, in series [3], the “Log K2” value is listed as 7.64.

As to `CCn1ccc(=O)c(O)c1C`, the pKa in series [1] (read-out: pKa1) stood at 3.79; in series [1] (read-out: pKa2), 9.79.

Turning to `CCc1c(O)c(=O)ccn1CC`, the pKa amounted to 3.93 in series [1] (read-out: pKa1) and 10.1 in series [1] (read-out: pKa2). Also, the “Log K1” value in series [2] is on record as 13.18. Further, the “Log K2” value in series [3] was determined as 7.03. Also, in series [4], the “Log K3” value was 2.65.

Consider `CCc1c(O)c(=O)ccn1C`, for which the pKa was 3.74 in series [1] (read-out: pKa1) and 9.7 in series [1] (read-out: pKa2).

For `Cc1c(O)c(=O)ccn1C` [DEFERIPRONE], the pKa in series [1] (read-out: pKa1) was 3.84; in series [1] (read-out: pKa2) it was 9.86. Besides, in series [2], the “Log K1” value is 11.48. For the same compound, the “Log K2” value in series [3] was 10.22. The “Log K3” value in series [4] was determined as 5.64.

(Values after ChEMBL document CHEMBL1127328, “Copper complexation by 3-hydroxypyridin-4-one iron chelators: structural and iron competition studies” (J Med Chem, 1994).)
